US8012998B2, “Pyrrolidine aryl-ether as NK-3 receptor antagonists” (Hoffmann—LA Roche Inc., priority 2007, dated 2011)

target: T1, human NK3 receptor (Homo sapiens, UniProt P29371); test: [3H]SR142801 competition binding assay (hNK3 receptor binding); conditions: [3H]SR142801 radioligand; membranes from HEK293 cells transiently expressing recombinant human NK3 receptor; Ki by Cheng-Prussoff; read-out: KiNK3 h
T1 construct: expressed in transfected cells; host or cells: HEK293 cells (transient expression), membrane preparation
T1 sequence (P29371 1-465): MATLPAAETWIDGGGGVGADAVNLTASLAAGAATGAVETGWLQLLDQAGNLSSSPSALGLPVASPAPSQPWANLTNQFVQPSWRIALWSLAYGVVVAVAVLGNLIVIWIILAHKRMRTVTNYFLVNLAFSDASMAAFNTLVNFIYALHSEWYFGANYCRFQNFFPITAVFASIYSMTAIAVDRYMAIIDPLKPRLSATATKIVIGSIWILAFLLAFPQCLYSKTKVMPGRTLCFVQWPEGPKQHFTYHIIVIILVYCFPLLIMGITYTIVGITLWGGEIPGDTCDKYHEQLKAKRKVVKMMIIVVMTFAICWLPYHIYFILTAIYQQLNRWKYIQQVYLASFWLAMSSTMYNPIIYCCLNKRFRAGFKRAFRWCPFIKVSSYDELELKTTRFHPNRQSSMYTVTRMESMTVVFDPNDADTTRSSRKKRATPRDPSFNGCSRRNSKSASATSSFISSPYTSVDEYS
Method in brief: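 Competition binding with [3H]SR142801 on membranes of HEK293 cells transiently expressing human NK3, 5 μg protein/well, in Tris-HCl/MnCl2/phosphoramidon/BSA buffer pH 7.4. Nonspecific binding defined with 10 μM SB222200; filtration then scintillation counting. IC50 from Hill fit was converted to Ki by Cheng-Prusoff; duplicate, mean ± SEM.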

| Molecule | Ki [nM] |
| --- | --- |
| Cc1cc(C(=O)N2C[C@H]([C@H](C)Oc3ccc(C#N)cn3)[C@@H](c3ccc(F)c(F)c3)C2)cnn1 [Example 106, 6-{(S)-1-[(3R,4S)-4-(3,4-Difluoro-phenyl)-1-(6-methyl-pyridazine-4-carbonyl)-pyrrolidin-3-yl]-ethoxy}-nicotinonitrile] | 30.9 |
| Cc1cc(C(=O)N2C[C@H]([C@H](C)Oc3ccc(Cl)cn3)[C@@H](c3ccc(Cl)c(F)c3)C2)cnn1 [Example 107, {(3S,4R)-3-(4-Chloro-3-fluoro-phenyl)-4-[(S)-1-(5-chloro-pyridin-2-yloxy)-ethyl]-pyrrolidin-1-yl}-(6-methyl-pyridazin-4-yl)-methanone] | 2.6 |
| Cc1cc(C(=O)N2C[C@H]([C@H](C)Oc3ccc(Cl)cn3)[C@@H](c3ccc(Cl)cc3)C2)cnn1 [Example 108, {(3S,4R)-3-(4-Chloro-phenyl)-4-[(S)-1-(5-chloro-pyridin-2-yloxy)-ethyl]-pyrrolidin-1-yl}-(6-methyl-pyridazin-4-yl)-methanone] | 2.8 |
| Cc1ncc(C(=O)N2C[C@H]([C@H](C)Oc3ccc(Cl)cn3)[C@@H](c3ccc(Cl)cc3)C2)cn1 [Example 109, {(3S,4R)-3-(4-Chloro-phenyl)-4-[(S)-1-(5-chloro-pyridin-2-yloxy)-ethyl]-pyrrolidin-1-yl}-(2-methyl-pyrimidin-5-yl)-methanone] | 24.1 |
| Cc1cc(C(=O)N2C[C@H]([C@H](C)Oc3ccc(C#N)cn3)[C@@H](c3ccc(Cl)cc3)C2)cnn1 [Example 111, 6-{(S)-1-[(3R,4S)-4-(4-Chloro-phenyl)-1-(6-methyl-pyridazine-4-carbonyl)-pyrrolidin-3-yl]-ethoxy}-nicotinonitrile] | 3.7 |
| Cc1cc(C(=O)N2C[C@H]([C@H](CO)Oc3ccc(Cl)cn3)[C@@H](c3ccc(Cl)c(Cl)c3)C2)cnn1 [Example 112, [(3R,4S)-3-[(R)-1-(5-Chloro-pyridin-2-yloxy)-2-hydroxy-ethyl]-4-(3,4-dichloro-phenyl)-pyrrolidin-1-yl]-(6-methyl-pyridazin-4-yl)-methanone] | 5 |
| Cc1cc(C(=O)N2C[C@H]([C@H](C)Oc3ccc(Cl)cn3)[C@@H](c3ccc(F)c(F)c3)C2)c(C)nn1 [Example 113, [(3R,4S)-3-[(S)-1-(5-Chloro-pyridin-2-yloxy)-ethyl]-4-(3,4-difluoro-phenyl)-pyrrolidin-1-yl]-(3,6-dimethyl-pyridazin-4-yl)-methanone] | 17.7 |
| Cc1cc(C(=O)N2C[C@H]([C@H](C)Oc3ccc(C#N)cn3)[C@@H](c3ccc(F)c(F)c3)C2)c(C)nn1 [Example 114, 6-{(S)-1-[(3R,4S)-4-(3,4-Difluoro-phenyl)-1-(3,6-dimethyl-pyridazine-4-carbonyl)-pyrrolidin-3-yl]-ethoxy}-nicotinonitrile] | 85.4 |
| Cc1cc(C(=O)N2C[C@H]([C@H](C)Oc3ccc(Cl)cn3)[C@@H](c3ccc(F)cc3)C2)cnn1 [Example 115, [(3R,4S)-3-[(S)-1-(5-Chloro-pyridin-2-yloxy)-ethyl]-4-(4-fluoro-phenyl)-pyrrolidin-1-yl]-(6-methyl-pyridazin-4-yl)-methanone] | 4 |
| Cc1cc(C(=O)N2C[C@H]([C@H](CO)Oc3ccc(Cl)cn3)[C@@H](c3ccc(F)c(F)c3)C2)cnn1 [Example 116, [(3R,4S)-3-[(R)-1-(5-Chloro-pyridin-2-yloxy)-2-hydroxy-ethyl]-4-(3,4-difluoro-phenyl)-pyrrolidin-1-yl]-(6-methyl-pyridazin-4-yl)-methanone] | 28 |
| Cc1cc(C(=O)N2C[C@H]([C@H](C)Oc3ccc(C(F)(F)F)cn3)[C@@H](c3ccc(Cl)cc3)C2)cnn1 [Example 119, {(3S,4R)-3-(4-Chloro-phenyl)-4-[(S)-1-(5-trifluoromethyl-pyridin-2-yloxy)-ethyl]-pyrrolidin-1-yl}-(6-methyl-pyridazin-4-yl)-methanone] | 3 |
| [(3S,4R)-3-[(R)-1-(5-Chloro-pyridin-2-yloxy)-ethyl]-4-(3,4-dichloro-phenyl)-pyrrolidin-1-yl]-(6-methoxy-pyridin-3-yl)-methanone and [(3R,4S)-3-[(S)-1-(5-Chloro-pyridin-2-yloxy)-ethyl]-4-(3,4-dichloro-phenyl)-pyrrolidin-1-yl]-(6-methoxy-pyridin-3-yl)-methanone [Example 21] | 5.6 |

tested on: not given; test: not given; conditions: phase II trial; negative symptoms (depression, anhedonia, social isolation, memory and attention deficits); cited from earlier work

| Molecule | activity in the treatment of negative symptoms of schizophrenia |
| --- | --- |
| CC(=O)N(C)C1(c2ccccc2)CCN(CCC[C@]2(c3ccc(Cl)c(Cl)c3)CCCN(C(=O)c3ccccc3)C2)CC1 [SR 142,801, Osanetant] | inactive |

same assay, conditions: phase II trial; positive symptoms (altered behaviour, delusion, hallucinations, extreme emotions, excited motor activity, incoherent speech); cited from earlier work

| Molecule | activity on positive symptoms of schizophrenia |
| --- | --- |
| CC(=O)N(C)C1(c2ccccc2)CCN(CCC[C@]2(c3ccc(Cl)c(Cl)c3)CCCN(C(=O)c3ccccc3)C2)CC1 [SR 142,801, Osanetant] | active |
